What all share (type): in vivo
Series [1] relates to Cabbage Looper (CL) (Trichoplusia ni). Nature of the series: Bioassay on Cabbage Looper (CL), 128-well diet tray assay. Particulars: 168 h, read-out: CL % Control (or Mortality) rating. The procedure: (§1) Certain molecules disclosed in this document were tested against BAW and CL using procedures described in the following examples. In the reporting of the results, the “BAW & CL Rating Table” was used (See Table Section).
Bioassays on CL were conducted using a 128-well diet tray assay. One to five second instar CL larvae were placed in each well (3 mL) of the diet tray that had been previously filled with 1 mL of artificial diet to which 50 μg/cm^2 of the test compound (dissolved in 50 μL of 90:10 acetone-water mixture) had been applied (to each of eight wells) and then allowed to dry. Trays were covered with a clear self-adhesive cover, and held at 25° C., 14:10 light-dark for five to seven days. Percent mortality was recorded for the larvae in each well; activity in the eight wells was then averaged. The results are indicated in the table entitled “Table ABC: Assay Results” and “Table ABCD: Assay Results” (See Table Section).

The subject of series [2] is Beet Armyworm (BAW) (Spodoptera exigua). Nature of the series: Bioassay on Beet Armyworm (BAW), 128-well diet tray assay. The following applies: 168 h, read-out: BAW % Control (or Mortality) rating. The procedure:
as §1
Bioassays on BAW were conducted using a 128-well diet tray assay. one to five second instar BAW larvae were placed in each well (3 mL) of the diet tray that had been previously filled with 1 mL of artificial diet to which 50 μg/cm^2 of the test compound (dissolved in 50 μL of 90:10 acetone-water mixture) had been applied (to each of eight wells) and then allowed to dry. Trays were covered with a clear self-adhesive cover, and held at 25° C., 14:10 light-dark for five to seven days. Percent mortality was recorded for the larvae in each well; activity in the eight wells was then averaged. The results are indicated in the tables entitled “Table ABC: Assay Results” and “Table ABCD: Assay Results” (See Table Section).

Series [3] has as its system Yellow Fever Mosquito (YFM) (Aedes aegypti). Nature of the series: Bioassay on Yellow Fever Mosquito (YFM) larvae, 96-well plate. The following applies: about 1 day-old larvae, master plate 4000 ppm in DMSO diluted, scored on mortality after 3 days. The procedure:
Certain molecules disclosed in this document were tested against YFM using procedures described in the following paragraph. In the reporting of the results, the “GPA & YFM Rating Table” was used (See Table Section).
Master plates containing 400 μg of a molecule dissolved in 100 μL of dimethyl sulfoxide (DMSO) (equivalent to a 4000 ppm solution) are used. A master plate of assembled molecules contains 15 μL per well. To this plate, 135 μL of a 90:10 water:acetone mixture is added to each well. A robot (Biomek® NXP Laboratory Automation Workstation) is programmed to dispense 15 μL aspirations from the master plate into an empty 96-well shallow plate (“daughter” plate). There are 6 reps (“daughter” plates) created per master. The created daughter plates are then immediately infested with YFM larvae.
The day before plates are to be treated, mosquito eggs are placed in Millipore water containing liver powder to begin hatching (4 g. into 400 mL). After the daughter plates are created using the robot, they are infested with 220 μL of the liver powder/larval mosquito mixture (about 1 day-old larvae). After plates are infested with mosquito larvae, a non-evaporative lid is used to cover the plate to reduce drying. Plates are held at room temperature for 3 days prior to grading. After 3 days, each well is observed and scored based on mortality.

Where [4] appears, read: Table ABCD, 50 μg/cm^2 on artificial diet, second instar larvae, five to seven days, 25° C.
[5] abbreviates: Table ABC, 50 μg/cm^2 on artificial diet, second instar larvae, five to seven days, 25° C.

From US9469617B2, “Molecules having certain pesticidal utilities, and intermediates, compositions, and processes related thereto” (priority 2014, dated 2016) come the findings set out here.

Counter-ions that a name gives are not always drawn. Like-named read-outs stand apart in the source and are kept apart here.

One may read the mortality as the share of the test organisms that died. Regarding `CC(C)(C)OC(=O)NC1Cc2ccc(-c3ncn(-c4ccc(OC(F)(F)C(F)(F)F)cc4)n3)cc2C1` (centres unmarked) [C2, tert-butyl (5-(1-(4-(perfluoroethoxy)phenyl)-1H-1,2,4-triazol-3-yl)-2,3-dihydro-1H-inden-2-yl)carbamate], the mortality at 50 µg/cm2 in series [1] (setting [4]) and in series [2] (setting [4]) was 50 to 100% throughout.
For the compound `NC1Cc2ccc(-c3ncn(-c4ccc(OC(F)(F)F)cc4)n3)cc2C1` (centres unmarked) [C3, 5-(1-(4-(trifluoromethoxy)phenyl)-1H-1,2,4-triazol-3-yl)-2,3-dihydro-1H-inden-2-amine dihydrochloride], the mortality at 50 µg/cm2 in series [1] and in series [2] was 50 to 100% throughout. Besides, in series [3] (Table ABCD), the “YFM % Control (or Mortality) rating” value is “A (80-100)”.
Consider `NC1Cc2ccc(-c3ncn(-c4ccc(OC(F)(F)F)cc4)n3)cc2C1.O=C(O)C(F)(F)F` (centres unmarked) [C4, 5-(1-(4-(trifluoromethoxy)phenyl)-1H-1,2,4-triazol-3-yl)-2,3-dihydro-1H-inden-2-amine 2,2,2-trifluoroacetate], for which, in series [3] (Table ABCD), the “YFM % Control (or Mortality) rating” value is recorded as “D (No activity noticed in this bioassay)”.
On the same count and under the same terms, the result for `C=C(C)c1ccc(Cl)cc1[N+](=O)[O-]` [C8, 4-Chloro-2-nitro-1-(prop-1-en-2-yl)benzene] reads “D (No activity noticed in this bioassay)”; that for `CCc1ccc(C)cc1NC(=S)NC(=O)c1ccccc1` [C17, N-((2-Ethyl-5-methylphenyl)carbamothioyl)benzamide], “D (No activity noticed in this bioassay)”.
The same measure, in the same setting: the same measure for `COc1ccc(C(C)C)c(NC(=S)NC(=O)c2ccccc2)c1` [C18, N-((2-Isopropyl-5-methoxyphenyl)carbamothioyl)benzamide]: “D (No activity noticed in this bioassay)”; for `CCCc1ccc(C)cc1NC(N)=S` [C20, 1-(5-methyl-2-propylphenyl)thiourea]: “D (No activity noticed in this bioassay)”; for `CCc1ccc(C)cc1NC(N)=S` [C22, 1-(2-Ethyl-5-methylphenyl)thiourea]: “D (No activity noticed in this bioassay)”.
With `Cc1ccc(C(C)C)c(N2C(=N)SCC2=O)c1` [C29, 2-imino-3-(2-isopropyl-5-methylphenyl)thiazolidin-4-one], the mortality at 50 µg/cm2 in series [1] (setting [4]) lay within 50 to 100%; in series [2] (setting [4]), 0 to 50%. For the same compound, the “YFM % Control (or Mortality) rating” value in series [3] (Table ABCD) is reported as “B (More than 0-Less than 80)”.
On to `Cc1ccc(C(C)C)c(N2C(=O)CS/C2=N\C(=O)Oc2ccc([N+](=O)[O-])cc2)c1` [C30, (Z)-4-nitrophenyl (3-(2-isopropyl-5-methylphenyl)-4-oxothiazolidin-2-ylidene)carbamate], for which, in series [2], the mortality at 50 µg/cm2 stood at 0%. The “YFM % Control (or Mortality) rating” value in series [3] (Table ABCD) is “D (No activity noticed in this bioassay)”.
Turning to `Cc1ccc(C(C)C)c(NC(=S)NC(=O)NC2Cc3ccc(-c4ncn(-c5ccc(OC(F)(F)F)cc5)n4)cc3C2)c1` (centres unmarked) [F1, 1-[(2-isopropyl-5-methyl-phenyl)carbamothioyl]-3-[5-[1-[4-(trifluoromethoxy)phenyl]-1,2,4-triazol-3-yl]indan-2-yl]urea], the mortality at 50 µg/cm2 in series [1] (setting [5]) and in series [2] (setting [5]) was 50 to 100% in each case. Further, the “YFM % Control (or Mortality) rating” value in series [3] (Table ABC) was “A (80-100)”.
In the case of `Cc1ccc(C(C)C)c(NC(=S)NC(=O)NC2Cc3ccc(-c4ncn(-c5ccc(OC(F)(F)C(F)(F)F)cc5)n4)cc3C2)c1` (centres unmarked) [F3, 1-[(2-isopropyl-5-methyl-phenyl)carbamothioyl]-3-[5-[1-[4-(1,1,2,2,2-pentafluoroethoxy)phenyl]-1,2,4-triazol-3-yl]indan-2-yl]urea], the mortality at 50 µg/cm2 in series [1] (setting [5]) and in series [2] (setting [5]) was 50 to 100% throughout. Moreover, in series [3] (Table ABC), the “YFM % Control (or Mortality) rating” value is recorded as “A (80-100)”.
Consider `CCc1ccc(C)cc1NC(=S)NC(=O)NC1Cc2ccc(-c3ncn(-c4ccc(OC(F)(F)F)cc4)n3)cc2C1` (centres unmarked) [F5, 1-[(2-Ethyl-5-methyl-phenyl)carbamothioyl]-3-[5-[1-[4-(trifluoromethoxy)phenyl]-1,2,4-triazol-3-yl]indan-2-yl]urea], for which the mortality at 50 µg/cm2 in series [1] (setting [5]) and in series [2] (setting [5]) was 50 to 100% in each case.
Turning to `CCc1cccc(C)c1NC(=S)NC(=O)NC1Cc2ccc(-c3ncn(-c4ccc(OC(F)(F)F)cc4)n3)cc2C1` (centres unmarked) [F6, 1-[(2-Ethyl-6-methyl-phenyl)carbamothioyl]-3-[5-[1-[4-(trifluoromethoxy)phenyl]-1,2,4-triazol-3-yl]indan-2-yl]urea], the mortality at 50 µg/cm2 in series [1] (setting [5]) and in series [2] (setting [5]) was 50 to 100% in each case.
For the compound `CCc1ccccc1NC(=S)NC(=O)NC1Cc2ccc(-c3ncn(-c4ccc(OC(F)(F)F)cc4)n3)cc2C1` (centres unmarked) [F7, 1-[(2-Ethylphenyl)carbamothioyl]-3-[5-[1-[4-(trifluoromethoxy)phenyl]-1,2,4-triazol-3-yl]indan-2-yl]urea], the mortality at 50 µg/cm2 in series [1] (setting [5]) and in series [2] (setting [5]) was 50 to 100% each time.
As for `CCCc1ccc(C)cc1NC(=S)NC(=O)NC1Cc2ccc(-c3ncn(-c4ccc(OC(F)(F)F)cc4)n3)cc2C1` (centres unmarked) [F8, 1-[(5-Methyl-2-propyl-phenyl)carbamothioyl]-3-[5-[1-[4-(trifluoromethoxy)phenyl]-1,2,4-triazol-3-yl]indan-2-yl]urea], the mortality at 50 µg/cm2 in series [1] (setting [5]) and in series [2] (setting [5]) was 50 to 100% each time.
With `CCc1ccc(C)cc1N1C(=O)CS/C1=N\C(=O)NC1Cc2ccc(-c3ncn(-c4ccc(OC(F)(F)F)cc4)n3)cc2C1` (centres unmarked) [F9, (Z)-1-(3-(2-Ethyl-5-methylphenyl)-4-oxothiazolidin-2-ylidene)-3-(5-(1-(4-(trifluoromethoxy)phenyl)-1H-1,2,4-triazol-3-yl)-2,3-dihydro-1H-inden-2-yl)urea], the mortality at 50 µg/cm2 in series [1] (setting [5]) and in series [2] (setting [5]) was 50 to 100% each time. Also, the “YFM % Control (or Mortality) rating” value in series [3] (Table ABC) was “A (80-100)”.
Consider `CC(C)c1ccccc1NC(=S)NC(=O)NC1Cc2ccc(-c3ncn(-c4ccc(OC(F)(F)F)cc4)n3)cc2C1` (centres unmarked) [F14, 1-[(2-Isopropylphenyl)carbamothioyl]-3-[5-[1-[4-(trifluoromethoxy)phenyl]-1,2,4-triazol-3-yl]indan-2-yl]urea], for which the mortality at 50 µg/cm2 in series [1] (setting [5]) and in series [2] (setting [5]) was 50 to 100% each time.
As to `CC(C)c1ccccc1N1C(=O)CCS/C1=N\C(=O)NC1Cc2ccc(-c3ncn(-c4ccc(OC(F)(F)F)cc4)n3)cc2C1` (centres unmarked) [FA4, (Z)-1-(3-(2-isopropylphenyl)-4-oxo-1,3-thiazinan-2-ylidene)-3-(5-(1-(4-(trifluoromethoxy)phenyl)-1H-1,2,4-triazol-3-yl)-2,3-dihydro-1H-inden-2-yl)urea], the mortality at 50 µg/cm2 in series [1] (setting [5]) and in series [2] (setting [5]) was 50 to 100% each time.
For `Cc1ccc(C(C)C)c(N2/C(=N/C(=O)NC3Cc4ccc(-c5ncn(-c6ccc(OC(F)(F)F)cc6)n5)cc4C3)SCCC2C)c1` (centres unmarked) [P16, (Z)-1-(3-(2-Isopropyl-5-methylphenyl)-4-methyl-1,3-thiazinan-2-ylidene)-3-(5-(1-(4-(trifluoromethoxy)phenyl)-1H-1,2,4-triazol-3-yl)-2,3-dihydro-1H-inden-2-yl)urea], the mortality at 50 µg/cm2 in series [1] (setting [5]) and in series [2] (setting [5]) was 50 to 100% throughout.
On to `Cc1ccc(C(C)C)c(N2C(=O)CCS/C2=N\C(=O)NC2Cc3ccc(-c4ncn(-c5ccc(OC(F)(F)F)cc5)n4)cc3C2)c1` (centres unmarked) [P17, (Z)-1-(3-(2-Isopropyl-5-methylphenyl)-4-oxo-1,3-thiazinan-2-ylidene)-3-(5-(1-(4-(trifluoromethoxy)phenyl)-1H-1,2,4-triazol-3-yl)-2,3-dihydro-1H-inden-2-yl)urea], for which the mortality at 50 µg/cm2 in series [1] (setting [5]) and in series [2] (setting [5]) was 50 to 100% each time.
